Experimental data from patent publication US9156831B2, “Chemical compounds” (ASTRAZENECA AB, priority 2013, dated 2015).

Key:
[1] = test system: BT474 xenograft; experiment: Tumour growth inhibition, BT474 xenograft model; assay type: in vivo, mouse
Protocol: BT474 is an estrogen receptor positive breast tumour cell lines with elevated Her2 expression and carries a mutation in the PIK3CA gene (K111N). Female Swiss athymic nude mice (swiss nu/nu-AZUK) were transplanted subcutaneously with human epithelial breast ductal carcinoma cell line BT474c (derived in AZ from BT474-ATCC HTB-20) tumours passaged in mice. Mice were implanted with 0.36 mg 60 day oestrogen pellet (Innovative Research of America) 24 hours prior to cell implantation. 5×10^6 cells in 50% matrigel (BD Bioscience) were injected s.c. on the left flank of the animals.
(§1) Animals were randomised into groups of 10-15 when tumours reached a volume of ˜200-300 mm^3 and treatment commenced. Animals were dosed for 3-4 weeks by peroral route, with compound in a suitable vehicle at defined doses and schedules. Tumours were measured two-three times weekly by caliper and volume of tumours calculated using elliptical formula (pi/6×width×width×length).

[2] = test system: HCC70 xenograft; experiment: Tumour growth inhibition, HCC70 xenograft model; assay type: in vivo, mouse; conditions: AZD8186 alone 50 mg/kg BID every day; FIG. 13
Protocol: HCC70 is breast tumour cell line which is deficient in PTEN gene expression. Female Swiss athymic nude mice (swiss nu/nu—AZUK) were transplanted subcutaneously with the breast ductal epithelial tumour cell line HCC70 (ATCC—CRL2315) cells. 1×10^6 cells in 50% matrigel (BD Bioscience) were injected s.c. on the left flank of the animals.
as §1

[3] = target: PI3K-δ (Homo sapiens (Human), UniProt O00329); experiment: In vitro enzyme inhibition assay (Kinase Glo); assay type: biochemical; conditions: Test protocol a; mean of replicates
PI3K-δ, sequence (O00329 whole entry): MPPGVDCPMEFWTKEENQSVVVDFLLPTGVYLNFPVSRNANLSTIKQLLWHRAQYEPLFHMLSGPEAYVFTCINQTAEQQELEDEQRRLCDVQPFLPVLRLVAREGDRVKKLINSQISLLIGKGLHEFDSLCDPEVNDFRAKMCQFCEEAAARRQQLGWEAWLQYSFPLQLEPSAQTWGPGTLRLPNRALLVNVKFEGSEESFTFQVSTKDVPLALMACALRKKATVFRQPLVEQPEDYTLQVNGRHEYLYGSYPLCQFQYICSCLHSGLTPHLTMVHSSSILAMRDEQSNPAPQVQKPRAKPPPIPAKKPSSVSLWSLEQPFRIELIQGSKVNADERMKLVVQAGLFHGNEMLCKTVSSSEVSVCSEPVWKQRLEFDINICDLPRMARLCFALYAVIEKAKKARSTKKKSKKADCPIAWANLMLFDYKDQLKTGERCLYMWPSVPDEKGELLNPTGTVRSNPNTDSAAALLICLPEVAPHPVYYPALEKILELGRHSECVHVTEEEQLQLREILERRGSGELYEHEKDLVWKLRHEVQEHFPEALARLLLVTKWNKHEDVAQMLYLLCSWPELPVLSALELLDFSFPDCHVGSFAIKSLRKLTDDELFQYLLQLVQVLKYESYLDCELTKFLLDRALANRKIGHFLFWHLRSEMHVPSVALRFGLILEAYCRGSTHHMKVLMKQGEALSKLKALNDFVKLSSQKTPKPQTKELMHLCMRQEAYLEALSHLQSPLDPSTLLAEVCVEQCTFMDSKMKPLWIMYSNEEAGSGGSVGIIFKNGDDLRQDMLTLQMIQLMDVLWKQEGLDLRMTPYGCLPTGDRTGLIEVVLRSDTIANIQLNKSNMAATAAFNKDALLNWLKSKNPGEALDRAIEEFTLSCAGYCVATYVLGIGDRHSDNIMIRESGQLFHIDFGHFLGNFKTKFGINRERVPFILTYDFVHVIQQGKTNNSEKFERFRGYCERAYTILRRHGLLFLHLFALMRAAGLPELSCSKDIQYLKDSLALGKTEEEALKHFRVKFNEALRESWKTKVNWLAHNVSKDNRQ
PI3K-δ, sequence (P27986 whole entry partner): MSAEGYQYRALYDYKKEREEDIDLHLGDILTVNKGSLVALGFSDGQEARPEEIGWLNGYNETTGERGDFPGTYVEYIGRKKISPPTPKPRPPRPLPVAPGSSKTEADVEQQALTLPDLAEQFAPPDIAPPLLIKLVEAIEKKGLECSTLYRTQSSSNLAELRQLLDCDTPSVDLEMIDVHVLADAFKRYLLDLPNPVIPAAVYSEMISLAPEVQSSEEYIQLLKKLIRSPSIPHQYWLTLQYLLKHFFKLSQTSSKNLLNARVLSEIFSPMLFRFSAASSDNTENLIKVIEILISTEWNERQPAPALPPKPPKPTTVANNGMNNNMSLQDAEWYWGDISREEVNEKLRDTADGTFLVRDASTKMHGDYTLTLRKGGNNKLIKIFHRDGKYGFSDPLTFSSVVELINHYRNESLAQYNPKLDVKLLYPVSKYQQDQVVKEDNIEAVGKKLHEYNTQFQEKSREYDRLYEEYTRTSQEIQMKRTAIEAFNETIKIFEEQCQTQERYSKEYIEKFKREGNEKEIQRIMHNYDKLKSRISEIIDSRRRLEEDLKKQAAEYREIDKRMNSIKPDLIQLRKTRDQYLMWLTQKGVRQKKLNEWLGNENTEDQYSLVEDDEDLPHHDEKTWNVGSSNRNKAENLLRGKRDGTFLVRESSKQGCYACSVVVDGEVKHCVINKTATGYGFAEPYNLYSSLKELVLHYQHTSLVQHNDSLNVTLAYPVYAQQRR
Protocol: (§2) The inhibition of PI3K-β, PI3K-α, PI3K-γ and PI3K-δ was evaluated in a Kinase Glo based enzyme activity assay using human recombinant enzymes. The assay platform indirectly measured the depletion of ATP after incubation with enzyme, PIP2 substrate, ATP and compound.
(§3) After completion of the enzyme reaction the remaining ATP was used in a secondary enzymatic reaction, where Luciferase converted beetle luciferin into oxyluciferin under the emission of light. A direct relationship existed between the luminescence measured and the ATP remaining in a completed kinase reaction. Therefore, the luminescence was inversely related to the kinase activity.
(§4) Compounds in 100% DMSO were added to assay plates by acoustic dispensing. PI3K enzyme was added in a Tris buffer (50 mM Tris pH7.4, 0.05% CHAPS, 2.1 mM DTT, and 10 mM magnesium chloride) and allowed to preincubate with compound for 20 minutes prior to addition of substrate solution containing PIP2 and ATP. The enzyme reaction was stopped after 80 minutes by the addition of Kinase Glo detection solution containing Lucferin and Luciferase (from Kinase Glo® Plus Luminecent Kinase Assay kit (Promega #V3772). Plates were left for 30 minutes at room temperature then read on a Pherastar Instrument with a standard Luminescence filter block. The final concentration of DMSO, ATP and PIP2 in the assay were, 1%, 8 μM, and 80 μM respectively.
(§5) IC50 values were calculated using a log curve fitting to a non-linear regression fit.

[4] = target: PI3K-β (Homo sapiens (Human), UniProt P42338); experiment: In vitro enzyme inhibition assay (Kinase Glo); assay type: biochemical; conditions: Test protocol a; mean of replicates
PI3K-β, sequence (P42338 whole entry): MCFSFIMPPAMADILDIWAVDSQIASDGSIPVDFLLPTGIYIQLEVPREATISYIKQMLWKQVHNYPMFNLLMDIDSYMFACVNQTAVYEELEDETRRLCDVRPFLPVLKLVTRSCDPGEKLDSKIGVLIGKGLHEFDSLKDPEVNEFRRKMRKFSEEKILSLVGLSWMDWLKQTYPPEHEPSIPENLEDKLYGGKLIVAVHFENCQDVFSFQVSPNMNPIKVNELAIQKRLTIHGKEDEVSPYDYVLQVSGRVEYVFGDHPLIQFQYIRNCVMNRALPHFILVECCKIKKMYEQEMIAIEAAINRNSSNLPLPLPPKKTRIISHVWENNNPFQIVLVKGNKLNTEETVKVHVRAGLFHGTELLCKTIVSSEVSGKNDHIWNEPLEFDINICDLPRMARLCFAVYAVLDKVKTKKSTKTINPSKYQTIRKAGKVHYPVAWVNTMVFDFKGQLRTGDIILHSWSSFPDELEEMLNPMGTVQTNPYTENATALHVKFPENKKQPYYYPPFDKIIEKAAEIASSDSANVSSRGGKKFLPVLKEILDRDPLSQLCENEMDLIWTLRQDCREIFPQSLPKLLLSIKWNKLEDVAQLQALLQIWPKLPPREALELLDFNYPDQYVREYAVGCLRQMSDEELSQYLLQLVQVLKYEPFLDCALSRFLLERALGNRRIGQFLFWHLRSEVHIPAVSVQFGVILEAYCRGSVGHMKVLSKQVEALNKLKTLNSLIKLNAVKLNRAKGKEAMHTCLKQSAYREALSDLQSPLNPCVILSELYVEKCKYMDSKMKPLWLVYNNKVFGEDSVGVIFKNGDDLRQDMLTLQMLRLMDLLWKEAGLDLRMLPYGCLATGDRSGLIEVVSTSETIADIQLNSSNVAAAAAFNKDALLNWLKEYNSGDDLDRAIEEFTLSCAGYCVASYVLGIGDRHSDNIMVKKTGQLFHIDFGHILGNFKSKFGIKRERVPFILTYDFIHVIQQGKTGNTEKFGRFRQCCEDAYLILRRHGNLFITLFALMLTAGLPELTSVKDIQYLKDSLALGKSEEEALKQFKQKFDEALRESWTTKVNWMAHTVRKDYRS
PI3K-β, sequence (P27986 whole entry partner): as the sequence (P27986 whole entry partner) above
Protocol: as §2, §3, §4, §5

[5] = target: ATR kinase (Homo sapiens (Human), UniProt Q13535); experiment: Phospho Chk1 (Ser345) in HT29 cells (ATR cell assay); assay type: cell-based; conditions: Test protocol f, one test replicate only
Text: ATR (Ataxia Telangiectasia+Rad3-related kinase) is a PI3-kinase-related kinase which phosphorylates multiple substrates on serine or threonine residues in response to DNA damage or replication blocks. Chk1, a downstream protein kinase of ATR, plays a key role in DNA damage checkpoint control. Activation of Chk1 involves phosphorylation of Ser317 and Ser345 (the latter regarded as the preferential target for phosphorylation/activation by ATR).
This was a cell based assay to measure inhibition of ATR kinase, by measuring a decrease in phosphorylation of Chk1 (Ser 345) in HT29 cells, following treatment with compound and the UV mimetic 4NQO (Sigma #N8141). HT29 cells (ECACC #85061109) were seeded into 384 well assay plates (Costar #3712) at a density of 6000 cells/well in 40 μl EMEM medium containing 1% L glutamine and 10% FBS and allowed to adhere overnight. The following morning compounds in 100% DMSO were added to assay plates by acoustic dispensing. After 1 hour incubation at 37° C. and 5% CO2, 40 nl of 3 mM 4NQO in 100% DMSO was added to all wells by acoustic dispensing, except minimum control wells which were left untreated with 4NQO to generate a null response control. Plates were returned to the incubator for a further 1 hour. Then cells were fixed by adding 20 μl of 3.7% formaldehyde in PBS solution and incubating for 20 mins at room temperature. Then 20 μl of 0.1% Triton X100 in PBS was added and incubated for 10 minutes at room temperature, to permeabalise cells. Then the plates were washed once with 50 μl/well PBS, using a Biotek EL405 plate washer.
Phospho-Chk1 Ser 345 antibody (Cell Signalling Technology #2348) was diluted 150 fold in PBS containing 0.05% polysorbate/Tween and 15 μl was added to each well and incubated over night at room temperature. The next morning plates were washed three times with 50 μl/well PBS, using a Biotek EL405 plate washer, and then 20 μl of secondary Ab solution, containing 500 fold diluted Alexa Fluor 488 Goat anti-rabbit IgG (Molecular Probes #A-11008) and 0.002 mg/ml Hoeschst dye (Molecular Probes #H-3570), in PBST, was added. After 2 hours incubation at room temperature, the plates were washed three times with 50 μl/well PBS, using a Biotek EL405 plate washer, and plates were then sealed with black plate seals until read. Plates were read using an ArrayScan VTI instrument, using an XF53 filter with 10× objective. A two laser set up was used to analyse nuclear staining with Hoeschst (405 nM) and secondary antibody staining of pChk1 (488 nM).

[6] = target: PI3K-α (Homo sapiens (Human), UniProt P42336); experiment: In vitro enzyme inhibition assay (Kinase Glo); assay type: biochemical; conditions: Test protocol a; mean of replicates
PI3K-α (Homo sapiens (Human), UniProt P42336), sequence (P42336 whole entry, looked up): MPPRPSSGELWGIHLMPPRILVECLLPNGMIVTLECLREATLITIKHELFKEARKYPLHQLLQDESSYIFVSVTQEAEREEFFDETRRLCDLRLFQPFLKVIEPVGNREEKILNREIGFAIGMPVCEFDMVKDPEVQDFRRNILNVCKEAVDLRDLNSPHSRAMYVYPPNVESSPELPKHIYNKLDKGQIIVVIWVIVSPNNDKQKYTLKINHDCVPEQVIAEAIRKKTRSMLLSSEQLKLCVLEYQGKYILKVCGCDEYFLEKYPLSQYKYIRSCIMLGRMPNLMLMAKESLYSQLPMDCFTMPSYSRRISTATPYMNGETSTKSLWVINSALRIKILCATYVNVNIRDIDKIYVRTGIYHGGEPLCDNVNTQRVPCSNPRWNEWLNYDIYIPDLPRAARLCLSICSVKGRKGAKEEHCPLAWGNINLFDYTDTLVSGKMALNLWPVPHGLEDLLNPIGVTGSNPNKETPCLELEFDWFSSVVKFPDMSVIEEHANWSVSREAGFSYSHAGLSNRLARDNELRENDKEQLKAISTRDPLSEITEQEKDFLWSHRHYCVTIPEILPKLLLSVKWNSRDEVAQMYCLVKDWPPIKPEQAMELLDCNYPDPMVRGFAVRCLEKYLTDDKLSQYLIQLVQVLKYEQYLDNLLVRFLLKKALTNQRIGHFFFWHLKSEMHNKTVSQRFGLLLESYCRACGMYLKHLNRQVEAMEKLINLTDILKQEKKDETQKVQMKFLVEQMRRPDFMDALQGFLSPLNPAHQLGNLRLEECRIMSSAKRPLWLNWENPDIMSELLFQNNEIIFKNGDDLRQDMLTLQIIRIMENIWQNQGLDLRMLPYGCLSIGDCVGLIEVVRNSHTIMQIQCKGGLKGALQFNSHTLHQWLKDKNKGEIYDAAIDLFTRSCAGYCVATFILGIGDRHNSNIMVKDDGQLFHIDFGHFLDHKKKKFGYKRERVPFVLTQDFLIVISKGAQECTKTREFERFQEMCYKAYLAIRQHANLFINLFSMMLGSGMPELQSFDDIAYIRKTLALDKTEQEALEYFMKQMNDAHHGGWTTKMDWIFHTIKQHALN
PI3K-α (Homo sapiens (Human), UniProt P42336), sequence (P27986 whole entry partner, looked up): as the sequence (P27986 whole entry partner) above
Protocol: as §2, §3, §4, §5

[7] = target: PI3K-α (Homo sapiens (Human), UniProt P42336, K111N); experiment: Phosphorylated AKT (Thr308) in BT474 cells (PI3K-α cell assay); assay type: cell-based; conditions: Test protocol c, mean of replicates
PI3K-α (Homo sapiens (Human), UniProt P42336, K111N), sequence (P42336 whole entry K111N, looked up): as the sequence (P42336 whole entry, looked up) above, with K111N counted along it
PI3K-α (Homo sapiens (Human), UniProt P42336, K111N), sequence (P27986 whole entry partner, looked up): as the sequence (P27986 whole entry partner) above

[8] = test system: MCF7 xenograft; experiment: Tumour growth inhibition, MCF7 xenograft model; assay type: in vivo, mouse; conditions: olaparib alone 100 mg/kg QD every day; FIG. 12
Protocol: MCF7 is an estrogen receptor positive breast tumour cell line carrying a mutation in the PIKC3CA gene (E545K). […] SCID mice (AZ UK) were transplanted subcutaneously (s.c.) with human breast adenocarcinoma cell line MCF7 (ICRF London) to determine anti-tumour activity of PI3 kinase inhibitors. Mice were implanted with a 0.5 mg 21 day oestrogen pellet (Innovative Research of America) 24 hours prior to cell implantation. 5×10^6 cells in 50% matrigel (BD Bioscience) were injected s.c. on the left flank of the animals.
as §1

Row | SMILES | IC50 [3] [nM] | IC50 [4] [nM] | IC50 [5] [nM] | IC50 [7] [nM] | further results
1 | NC1(C(=O)N[C@@H](CCO)c2ccc(Cl)cc2)CCN(c2ncnc3[nH]ccc23)CC1 [AZD5363, (S)-4-amino-N-(1-(4-chlorophenyl)-3-hydroxypropyl)-1-(7H-pyrrolo[2,3-d]pyrimidin-4-yl)piperidine-4-carboxamide, reference compound] |  |  |  |  | tumour growth ([1]; AZD5363 alone 100 mg/kg BID, 2 days on/5 days off, vs vehicle, FIG. 10): partially inhibited tumour growth; tumour growth ([1]; AZD5363 alone 170 mg/kg BID, 2 days on/5 days off, vs vehicle, FIG. 9): partially inhibited tumour growth
2 | C[C@@H](Nc1cc(F)cc(F)c1)c1cc(C(=O)N(C)C)cc2c(=O)cc(N3CCOCC3)oc12 [AZD8186, 8-((1R)-1-(3,5-difluorophenylamino)ethyl)-N,N-dimethyl-2-morpholino-4-oxo-4H-chromene-6-carboxamide, reference compound] |  |  |  |  | tumour growth [2]: partially inhibited tumour growth
3 | C[C@@H](O)CC(=O)N1CCC(c2nc(-c3cnc(N)c(-c4nnc(C(C)(C)C)o4)n3)n(C)n2)CC1 [Example 4, (3R)-1-[4-[5-[5-amino-6-(5-tert-butyl-1,3,4-oxadiazol-2-yl)pyrazin-2-yl]-1-methyl-1,2,4-triazol-3-yl]-1-piperidyl]-3-hydroxy-butan-1-one] | < 12 | 2910 | > 30000 |  | 
4 | C[C@H](O)CC(=O)N1CCC(c2nc(-c3cnc(N)c(-c4nnc(C(C)(C)C)o4)n3)n(C)n2)CC1 [Example 5, (3S)-1-[4-[5-[5-amino-6-(5-tert-butyl-1,3,4-oxadiazol-2-yl)pyrazin-2-yl]-1-methyl-1,2,4-triazol-3-yl]-1-piperidyl]-3-hydroxy-butan-1-one] | 12 | 3310 | > 30000 |  | 
5 | O=C(c1cc(Cc2n[nH]c(=O)c3ccccc23)ccc1F)N1CCN(C(=O)C2CC2)CC1 [olaparib, 4-[3-(4-cyclopropanecarbonyl-piperazine-1-carbonyl)-4-fluoro-benzyl]-2H-phthalazin-1-one, reference compound] |  |  |  |  | tumour growth ([1]; olaparib alone 100 mg/kg QD every day, FIG. 11): no significant effect on tumour growth; tumour growth [8]: minimal effect on tumour growth

Further lines, with some results ahead:

Row | IC50 [3] [nM] | IC50 [4] [nM] | IC50 [5] [nM] | IC50 [7] [nM] | SMILES | further results
6 | < 12 | 3420 | > 30000 |  | C[C@H](CO)C(=O)N1CCC(c2nc(-c3cnc(N)c(-c4nnc(C(C)(C)C)o4)n3)n(C)n2)CC1 [Example 6, (2R)-1-[4-[5-[5-amino-6-(5-tert-butyl-1,3,4-oxadiazol-2-yl)pyrazin-2-yl]-1-methyl-1,2,4-triazol-3-yl]-1-piperidyl]-3-hydroxy-2-methyl-propan-1-one] | 
7 | 14 | 6260 | > 30000 | 420 | Cn1nc(C2CCN(C(=O)C(C)(C)O)CC2)nc1-c1cnc(N)c(-c2nnc(C(C)(C)C)o2)n1 [Example 7, 1-[4-[5-[5-amino-6-(5-tert-butyl-1,3,4-oxadiazol-2-yl)pyrazin-2-yl]-1-methyl-1,2,4-triazol-3-yl]-1-piperidyl]-2-hydroxy-2-methyl-propan-1-one] | IC50 [6]: 37 nM
8 | 12 | 1520 | > 30000 | 590 | Cn1nc(C2CCN(C(=O)CC(=O)O)CC2)nc1-c1cnc(N)c(-c2nnc(C(C)(C)C)o2)n1 [Example 8, 3-[4-[5-[5-amino-6-(5-tert-butyl-1,3,4-oxadiazol-2-yl)pyrazin-2-yl]-1-methyl-1,2,4-triazol-3-yl]-1-piperidyl]-3-oxo-propanoic acid] | IC50 [6]: 24 nM
9 | < 10 | 640 |  |  | CCn1nc(C2CCN(C(=O)CC(=O)O)CC2)nc1-c1cnc(N)c(-c2nnc(C(C)(C)C)o2)n1 [Example 9, 3-[4-[5-[5-amino-6-(5-tert-butyl-1,3,4-oxadiazol-2-yl)pyrazin-2-yl]-1-ethyl-1,2,4-triazol-3-yl]-1-piperidyl]-3-oxo-propanoic acid] | 
10 |  |  |  | 85 | CCn1nc(C2CCN(C(=O)[C@@H](O)CO)CC2)nc1-c1cnc(N)c(-c2nnc(C(C)(C)C)o2)n1 [Example 10, (2S)-1-[4-[5-[5-amino-6-(5-tert-butyl-1,3,4-oxadiazol-2-yl)pyrazin-2-yl]-1-ethyl-1,2,4-triazol-3-yl]-1-piperidyl]-2,3-dihydroxy-propan-1-one] | 
11 |  |  |  | 110 | CCn1nc(C2CCN(C(=O)[C@H](O)CO)CC2)nc1-c1cnc(N)c(-c2nnc(C(C)(C)C)o2)n1 [Example 11, (2R)-1-[4-[5-[5-amino-6-(5-tert-butyl-1,3,4-oxadiazol-2-yl)pyrazin-2-yl]-1-ethyl-1,2,4-triazol-3-yl]-1-piperidyl]-2,3-dihydroxy-propan-1-one] | 
